One assay has as its system MV4-11 cells. Kind of assay: MV4-11 6-day cell growth CTG (CellTiter-Glo) assay. Type of assay: cell-based. The settings on record: Homo sapiens, MV4-11, 144 h, 6 days, read-out: (c) MLL/WDR5 cell proliferation assay//MLL/WDR5 proliferation MV4:11 Qualified AC50. The method, then: MV4-11 6-Day Cell Growth CTG (CellTiter-Glo) Assay
Acute myeloid leukemia cell MV4-11 (ATCC® CRL-9591™) was cultured with RPMI 1640 medium (Thermo Fisher Scientific, cat #11875) supplemented with 10% FBS (Thermo Fisher Scientific, cat #10099141) in humidified incubator at 37° C., 5% CO2. To assess the effect of WDR5 inhibitor on cell growth, the compound of the present invention was dissolved in DMSO and serially diluted at 1:3 for 12 points starting from 10 mM then 200 nL for the replicate of each dose per well was dispensed to Viewplate-384 Black (Perkin Elmer). Exponentially growing MV4-11 cells were seeded at the density of 300 cells per well in 40 μL to the plate, so the final compound working concentration starts from 50 μM. After 6 days, 40 μL CellTiter-Glo (Promega, cat #G7573) was added into the cell culture well and luminescence was read with Envision (Perkin Elmer) to determine the viable cells. The percentage inhibition was calculated against the samples treated with DMSO only and the data were used for dose response curve fitting in GraphPad Prism to get the IC50 of representative compound of present invention, which reflects the inhibition of WDR5 activity in the proliferation of MV4;11.
A general note: ATP-based viability assays read luminescence as a measure of living cells.

A further assay has as its target WDR5 (Homo sapiens, UniProt P61964). Kind of assay: WDR5 HTRF binding assay. The settings on record: read-out: (a) WDR5 HTRF Pep Val v.1[Inhibitor/IC50]Qualified AC50. The method, then: The compounds were serially diluted 3-fold in DMSO to obtain a total of twelve concentrations. Then the test compounds at each concentration (90 nL of each) were transferred by Mosquito in the white Proxiplate plus 384-well microplate (Perkin Elmer). The assay mixture (typical 9 μL) containing 6 nM WDR5 and 20 nM Biotin-MLL1 WIN peptide (3762-3773) in the assay buffer (25 mM Hepes, pH7.5, 0.05% Tween 20, 2 mM DTT, 100 mM NaCl, 0.1% BSA) were added to the wells. For counter assay, a 9 μL solution of 15 nM Biotin-PEG-His peptide was added into the wells. After 20 min incubation at rt, a 3 μL detection solution containing 14 μg/ml Phycolink Streptavidin Allophycocyanin (Prozyme), 2 nM Anti-His-Eu (PerkinElmer) in assay buffer was then added. After 1 hr incubation, the plate was read in the EnVision reader (PerkinElmer) using the HTRF protocol (The protocol set-up: Lance/Delfia dual enhancer mirror, excitation at 320 UV2 (TRF), emission at APC665, 2nd emission at EuropiμM 615). HTRF signals were normalized based on the reading coming from the positive (maximum signal control) and negative controls (minimum signal control) to give percentage of activities left. The data were then fit to a dose response equation using the program Helios (Novartis) to get the IC50 values. Helios is a Novartis in-house assay data analysis software using the methods described by Normolle, D. P., Statistics in Medicine, 12:2025-2042 (1993); Formenko, I. et al., Computer Methods and programs in Biomedicine, 82, 31-37 (2006); Sebaugh, J. L., Pharmaceutical Statistics, 10:128-134 (2011); Kelly, C. et al., Biometrics, 46(4):1071-1085 (1990); and Kahm, M, et al., Journal of Statistical Software, 33(7):(2010) (grofit: Fitting Biological Growth Curves with R, pages 1-21, available at http://www.jstatsoft.org/).
A general note: TR-FRET usually uses a lanthanide donor and a delayed reading to cut background.

The target in assay [1] is wild type MLL1 four-member complex (MLL1-4C) (Homo sapiens, UniProt P61964). Kind of assay: MLL1 LC-MS assay (SAH production). The format is biochemical. The settings on record: read-out: (b) MLL LCMS Peptide Val.v.1 Qualified AC50. The method, then:
The compounds of the present disclosure were serially and separately diluted 3-fold in DMSO to obtain a total of eight or twelve concentrations. Then the test compounds at each concentration (120 nL of each) were transferred by Mosquito into white Proxiplate plus 384-well microplate (PerkinElmer). Solutions (6 μL) of 60 nM wild type MLL1 four-member complex (MLL1-4C) and 5 μM SAM in the reaction buffer (20 mM Tris-HCl, pH8.0, 0.01% Tween 20, 1 mM DTT, 10 mM MgCl2, 0.01% BSA) were added to the wells that were then incubated with the test compound for 20 min. A 6 μL solution of 20 μM of the peptide substrate H3K4me0 (histone H3[1-21]-Biotin) in the reaction buffer was added to initiate each reaction. The final components in the reaction solution include 30 nM MLL1-4C, 2.5 μM SAM, and 10 μM H3K4me0 with varying concentration of the compounds. A positive control consisted of 30 nM MLL1-4C, 2.5 μM SAM, and 10 μM substrate in the absence of the test compound, and a negative control consisted of 2.5 μM SAM, and 10 μM substrate only. Each reaction was incubated at rt for 120 min, then stopped by addition of 3 μL per of quench solution (2.5% TFA with 320 nM d4-SAH). The reaction mixture was centrifuged (Eppendorf centrifuge 5810, Rotor A-4-62) for 2 min at 2000 rmp. The SAH production from the enzymatic assays were monitored by LC-MS/MS on an API 4000 triple quadrupole mass spec with Turbolon Spray (Applied Biosystem) coupled with Prominenece UFLC (Shimazu). The level of SAH production were then normalized based on the values coming from the positive and negative controls to give percent enzyme activities. The data were then fit to a dose response equation using the program Helios (Novartis) to get the IC50 values of the test compound. Helios is a Novartis in-house assay data analysis software using the methods described by Normolle, D. P., Statistics in Medicine, 12:2025-2042 (1993); Formenko, I. et al., Computer Methods and programs in Biomedicine, 82, 31-37 (2006); Sebaugh, J. L., Pharmaceutical Statistics, 10:128-134 (2011); Kelly, C. et al., Biometrics, 46(4):1071-1085 (1990); and Kahm, M, et al., Journal of Statistical Software, 33(7):(2010) (grofit: Fitting Biological Growth Curves with R, pages 1-21, available at http://www.jstatsoft.org/).

Each structure is given as a SMILES string.

`CCOc1cc([C@H](C)N2CCc3c(CN(C)C)cc(Cn4ccnc4NC)cc3C2=O)ncc1C#N` [Example 50, (S)-6-(1-(5-((dimethylamino)methyl)-7-((2-(methylamino)-1H-imidazol-1-yl)methyl)-1-oxo-3,4-dihydroisoquinolin-2(1H)-yl)ethyl)-4-ethoxynicotinonitrile]: the AC50 (with MV4-11 cells; in assay [1]) was 10 to 1000 nM throughout. Further, the IC50 at WDR5 is 10 to 1000 nM.

`CCOc1cc([C@H](C)N2CCc3c(cc(Cn4ccnc4C)cc3-c3cn(C)c(=O)c(F)c3C)C2=O)ncc1C#N` [Example 287]: the AC50 (in the assay with MV4-11 cells; in assay [1]) was 10 to 1000 nM in each case. The IC50 on WDR5 was < 10 nM.

For the molecule `CNc1nccn1Cc1cc(CN2CC[C@@H](OC)C2)c2c(c1)C(=O)N([C@@H](C)c1cc(OC)c(F)cn1)CC2` [Example 36, 2-((S)-1-(5-fluoro-4-methoxypyridin-2-yl)ethyl)-5-(((R)-3-methoxypyrrolidin-1-yl)methyl)-7-((2-(methylamino)-1H-imidazol-1-yl)methyl)-3,4-dihydroisoquinolin-1(2H)-one], the AC50 (in the assay with MV4-11 cells; in assay [1]) was 10 to 1000 nM throughout. On WDR5, the IC50 was 10 to 1000 nM.

For the molecule `CNc1nccn1Cc1cc2c(c(-c3cc(CO)cnc3Cl)c1)CCN(Cc1cc(OC)c(F)cn1)C2=O` [Example 68, 5-(2-chloro-5-(hydroxymethyl)pyridin-3-yl)-2-((5-fluoro-4-methoxypyridin-2-yl)methyl)-7-((2-(methylamino)-1H-imidazol-1-yl)methyl)-3,4-dihydroisoquinolin-1(2H)-one], the AC50 (in the assay on MV4-11 cells; in assay [1]) was 10 to 1000 nM throughout. For the same molecule, the IC50 at WDR5 was in the range of 10 to 1000 nM.

In the case of `CNc1nccn1Cc1cc2c(c(C(F)F)c1)CCN([C@@H](C)c1cc(OC)c(F)cn1)C2=O` [Example 92, (S)-5-(difluoromethyl)-2-(1-(5-fluoro-4-methoxypyridin-2-yl)ethyl)-7-((2-(methylamino)-1H-imidazol-1-yl)methyl)-3,4-dihydroisoquinolin-1(2H)-one], the AC50 (with MV4-11 cells; in assay [1]) was 10 to 1000 nM throughout. Also, on WDR5, the IC50 fell in the range of 10 to 1000 nM.

On to `CCOc1cc([C@H](C)N2CCc3c(cc(Cn4ccnc4NC)cc3N3CCCC3)C2=O)ncc1F` (single isomer, unassigned) [Example 88], for which the AC50 (with MV4-11 cells; in assay [1]) was 10 to 1000 nM in each case. Moreover, at WDR5, the IC50 was < 10 nM.

Regarding `CCOc1cc([C@H](C)N2CCc3c(cc(CCN(C)CCO)cc3-c3cc(C)ncc3C)C2=O)ncc1C#N` [Example 250], the AC50 (in the assay with MV4-11 cells; in assay [1]) was 10 to 1000 nM each time. Besides, at WDR5, the IC50 was in the range of 10 to 1000 nM.

With `CNc1nccn1Cc1cc2c(c(-c3cn(C)nc3C)c1)CCN([C@@H](C)c1cc(OC)c(F)cn1)C2=O` [Example 62, (S)-5-(1,3-dimethyl-1H-pyrazol-4-yl)-2-(1-(5-fluoro-4-methoxypyridin-2-yl)ethyl)-7-((2-(methylamino)-1H-imidazol-1-yl)methyl)-3,4-dihydroisoquinolin-1(2H)-one], the AC50 (with MV4-11 cells; in assay [1]) was 10 to 1000 nM each time. The IC50 at WDR5 is 10 to 1000 nM.

For `COc1cc([C@H](C)N2CCc3c(cc(Cn4ccnc4C)cc3-c3nn(C)c(=O)cc3C(F)(F)F)C2=O)ncc1C#N` [Example 296], the AC50 (in the assay with MV4-11 cells; in assay [1]) was 10 to 1000 nM in each case. Besides, the IC50 at WDR5 lay within 10 to 1000 nM.

Regarding `CCOc1cc([C@H](C)N2CCc3c(cc(Cn4ccnc4C)cc3-c3cn(C)c(=O)cc3C(F)(F)F)C2=O)ncc1C#N` [Example 288], the AC50 is < 10 nM in the assay with MV4-11 cells and 10 to 1000 nM in assay [1]. Moreover, at WDR5, the IC50 was < 10 nM.

For `CCOc1cc([C@H](C)N2CCc3c(CN(C)C)cc(Cn4ccnc4NC)cc3C2=O)cnc1C#N` [Example 32, (S)-5-(1-(5-((dimethylamino)methyl)-7-((2-(methylamino)-1H-imidazol-1-yl)methyl)-1-oxo-3,4-dihydroisoquinolin-2(1H)-yl)ethyl)-3-ethoxypicolinonitrile], the AC50 (in the assay with MV4-11 cells; in assay [1]) was 10 to 1000 nM each time. The IC50 at WDR5 lay within 10 to 1000 nM.

As to `CCOc1cc([C@H](C)N2CCc3c(cc(Cn4ccnc4C)cc3-c3cn(S(C)(=O)=O)nc3C)C2=O)ncc1C#N` [Example 284], the AC50 (in the assay on MV4-11 cells; in assay [1]) was 10 to 1000 nM throughout. Moreover, the IC50 at WDR5 was < 10 nM.

Regarding `CNc1nccn1Cc1cc2c(c(-c3ccnn3C)c1)CCN(Cc1cc(OC)c(F)cn1)C2=O` [Example 60, 2-((5-fluoro-4-methoxypyridin-2-yl)methyl)-5-(1-methyl-1H-pyrazol-5-yl)-7-((2-(methylamino)-1H-imidazol-1-yl)methyl)-3,4-dihydroisoquinolin-1(2H)-one], the AC50 (in the assay with MV4-11 cells; in assay [1]) was 10 to 1000 nM each time. In addition, the IC50 at WDR5 lay within 10 to 1000 nM.

For `CNc1nccn1Cc1cc(-c2cc(CO)cnc2Cl)c2ccn(Cc3cccc(OC(F)F)c3)c(=O)c2c1` [Example 98, 5-(2-chloro-5-(hydroxymethyl)pyridin-3-yl)-2-(3-(difluoromethoxy)benzyl)-7-((2-(methylamino)-1H-imidazol-1-yl)methyl)isoquinolin-1(2H)-one], the AC50 (in the assay on MV4-11 cells; in assay [1]) was 10 to 1000 nM throughout. Moreover, on WDR5, the IC50 is < 10 nM.

With `CCOc1cc([C@H](C)N2CCc3c(cc(CCN(C)CCO)cc3-c3cc(N)cnc3C(F)(F)F)C2=O)ncc1C#N` [Example 230], the AC50 (in the assay with MV4-11 cells; in assay [1]) was 10 to 1000 nM throughout. Further, the IC50 at WDR5 was < 10 nM.

In the case of `CNc1nccn1Cc1cc2c(c(-c3cn(C)nc3C)c1)CCN(Cc1ccc(F)c(OC)c1)C2=O` [Example 58, 5-(1,3-dimethyl-1H-pyrazol-4-yl)-2-(4-fluoro-3-methoxybenzyl)-7-((2-(methylamino)-1H-imidazol-1-yl)methyl)-3,4-dihydroisoquinolin-1(2H)-one], the AC50 (in the assay on MV4-11 cells; in assay [1]) was 10 to 1000 nM throughout. In addition, the IC50 on WDR5 was in the range of 10 to 1000 nM.

The record behind these values is patent US20220289732A1, “HETEROCYCLIC WDR5 INHIBITORS AS ANTI-CANCER COMPOUNDS” (NOVARTIS AG, priority 2019, published 2022).
